Experimental findings from patent US8846937B2, “Mono quaternary ammonium salts and methods for modulating neuronal nicotinic acetylcholine receptors” (University of Kentucky Research Foundation, priority 2006, dated 2014) are described below.

The test system of assay [1] is nicotinic receptors, NIC-evoked [^3H]DA release from rat striatal slices. Put plainly: Inhibition of nicotine-evoked [^3H]dopamine release from superfused rat striatal slices. The class given is cell-based. The conditions noted are these: 1 h, 100 nM analog superfused 60 minutes prior to NIC (10 μM). As for the experimental part:
Rat striatal slices (500 μm thickness, 6-8 mg wet weight) were incubated for 30 minutes in Krebs buffer (118 mM NaCl, 4.7 mM KCl, 1.2 mM MgCl2, 1.0 mM NaH2PO4, 1.3 mM CaCl2, 11.1 mM glucose, 25 mM NaHCO3, 0.11 mM L-ascorbic acid, and 0.004 mM disodium EDTA at pH 7.4, and saturated with 95% O2/5% CO2) in a metabolic shaker at 34° C. Slices were rinsed with 15 mL of fresh buffer, and were incubated for an additional 30 minutes in fresh buffer containing 0.1 μM [^3H]dopamine (DA; 6 slices/3 mL). Subsequently, slices were rinsed with 15 mL of fresh buffer and transferred to a glass superfusion chamber. Slices were superfused (1.0 mL/min) for 60 minutes with Krebs buffer containing nomifensine (10 μM) and pargyline (10 μM), and maintained at 34° C., pH 7.4, with continual aeration (95% O2/5% CO2). Two five minute samples (5 mL each) were collected to determine basal outflow of [^3H]DA. The test compounds of Formula (I) were added to the superfusion buffer after the collection of the second sample, and were maintained in the buffer until 12 consecutive five minute samples were collected. Subsequently, S-(−)-nicotine (10 μM) was added to the buffer, and an additional 12 consecutive five minute samples were collected. At the end of the experiment, each slice was solubilized, and the [^3H]content of the tissue determined.
Radioactivity in the superfusate and tissue samples was determined by liquid scintillation spectroscopy. Fractional release of tritium collected in each sample was divided by the total tritium present in the tissue at the time of sample collection, and the fractional release of tritium collected was expressed as a percentage of total tritium. Basal [^3H]outflow was calculated from the average of the tritium collected in the two five minute samples just before addition of a test compound of Formula (I). The sum of the increase in collected tritium resulting from either exposure to a test compound of Formula (I), or exposure to S(−) nicotine in the absence and presence of a test compound of Formula (I) equaled total [^3H]overflow. [^3H]Overflow was calculated by subtracting the [^3H]outflow during an equivalent period of pre-stimulation from the values in samples collected during and after drug exposure. Inasmuch as the radio-labeled compounds were not separated and identified, the tritium collected in superfusate is referred to as either [^3H]outflow or [^3H]overflow, rather than as [^3H]DA. [^3H]Overflow primarily represents [^3H]DA in the presence of nomifensine and pargyline in the superfusion buffer.
The quaternary analogs of Formula (I) were also evaluated for their ability to inhibit NIC-evoked [^3H]DA release. In these experiments, the striatal slices were superfused for 60 minutes with 100 nM concentration of the quaternary analogs prior to NIC (10 μM) exposure. Antagonist activity was evaluated by comparing the NIC-evoked [^3H]overflow in the absence and presence of the analogs. The relative order of potency of the quaternary analogs of Formula (I) for inhibition of NIC-evoked [^3H]DA release from rat striatal slices is illustrated in Table 1.
^aData are % inhibition at 100 nM concentration of the mono quaternary analogs for at least 1-3 independent experiments; with the exception of when a Ki value in μM is provided, in which case a full concentration effect was evaluated. Specific binding in the [^3H]NIC binding assay is calculated as the difference between the total binding of 3 nM [^3H]NIC and nonspecific binding in the presence of 10 μM cold nicotine. Specific binding for the [^3H]MLA binding assay is calculated as the difference between the total binding of 2.5 nM [^3H]MLA to the receptors alone and its nonspecific binding in the presence of 1 μM cold MLA. Analog-induced inhibition of nicotine-evoked [^3H]DA release is calculated as a percent of that in the absence of the mono quaternary ammonium analog. ND indicates not determined.

In assay [2] the target is T1, Rat Striatal Nicotinic Receptors ([^3H]MLA binding) (Rattus norvegicus, UniProt Q05941).
T1 construct: Whole brain, excluding cortex and cerebellum, was homogenized; from tissue; host or cells: rat brain membranes (whole brain excluding cortex and cerebellum)
T1 sequence (Q05941 23-502): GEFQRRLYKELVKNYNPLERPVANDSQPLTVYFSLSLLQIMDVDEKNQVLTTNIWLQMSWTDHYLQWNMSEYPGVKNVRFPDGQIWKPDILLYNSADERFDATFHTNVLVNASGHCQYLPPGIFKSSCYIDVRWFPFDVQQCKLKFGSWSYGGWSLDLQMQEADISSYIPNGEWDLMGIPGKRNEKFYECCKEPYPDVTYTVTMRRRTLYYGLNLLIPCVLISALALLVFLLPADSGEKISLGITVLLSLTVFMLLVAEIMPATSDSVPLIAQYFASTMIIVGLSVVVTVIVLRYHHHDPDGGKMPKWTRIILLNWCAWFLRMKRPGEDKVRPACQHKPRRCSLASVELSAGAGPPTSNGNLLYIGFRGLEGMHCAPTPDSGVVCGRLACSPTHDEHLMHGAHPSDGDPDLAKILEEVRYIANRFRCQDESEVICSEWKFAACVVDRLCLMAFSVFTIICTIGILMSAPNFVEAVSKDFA
Put plainly: Inhibition of [^3H]methyllycaconitine (MLA) binding to brain membranes. The following applies: for inhibition at 0.1 µM: % inhibition at 100 nM analog, 2.5 nM [^3H]MLA, nonspecific 1 μM MLA (footnote); for Ki: full concentration effect, 2.5 nM [^3H]MLA (footnote). The procedure:
(§1) Test compounds of Formula (I), representing the mono quaternary nicotine analogs of the present invention, were evaluated to determine the effect of a test compound on nicotine-binding and methyllycaconitine-binding mediated by nicotine acetylcholine receptors.
Homogenate was centrifuged (25,000 g, 15 min, 4° C.). Pellets were resuspended in 20 volumes of buffer and incubated at 37° C., for 10 min, cooled to 4° C. and centrifuged (25,000 g, 15 min, 4° C.). Pellets were resuspended and centrifuged using the same conditions. […] Upon use, final pellets were resuspended in ˜20 volumes of assay buffer. […] A control sample absent test compounds of Formula (I) was also prepared. […] Incubations proceeded for 60 min at a room temperature using 96-well plates, and were terminated by harvesting on Unifilter-96 GF/B filter plates presoaked in 0.5% polyethylenimine, using a Packard FilterMate harvester. After washing 5 times with 350 μl ice-cold assay buffer, the filter plates were dried (60 min, 4° C.), bottom-sealed, and filled with Packard's MicroScint 20 cocktail (40 μl/well). After 60 min, filter plates were top-sealed, and levels of radioactivity were determined using a Packard TopCount. Protein concentrations were determined using the Bradford dye-binding procedure using bovine serum albumin as a standard protein. […]

For assay [3], the target named is T2, Rat Striatal Nicotinic Receptors ([^3H]NIC binding) (Rattus norvegicus, UniProt P09483+P12390).
T2 construct: Whole brain, excluding cortex and cerebellum, was homogenized; from tissue; host or cells: rat brain membranes (whole brain excluding cortex and cerebellum)
T2 sequence (P09483 31-630): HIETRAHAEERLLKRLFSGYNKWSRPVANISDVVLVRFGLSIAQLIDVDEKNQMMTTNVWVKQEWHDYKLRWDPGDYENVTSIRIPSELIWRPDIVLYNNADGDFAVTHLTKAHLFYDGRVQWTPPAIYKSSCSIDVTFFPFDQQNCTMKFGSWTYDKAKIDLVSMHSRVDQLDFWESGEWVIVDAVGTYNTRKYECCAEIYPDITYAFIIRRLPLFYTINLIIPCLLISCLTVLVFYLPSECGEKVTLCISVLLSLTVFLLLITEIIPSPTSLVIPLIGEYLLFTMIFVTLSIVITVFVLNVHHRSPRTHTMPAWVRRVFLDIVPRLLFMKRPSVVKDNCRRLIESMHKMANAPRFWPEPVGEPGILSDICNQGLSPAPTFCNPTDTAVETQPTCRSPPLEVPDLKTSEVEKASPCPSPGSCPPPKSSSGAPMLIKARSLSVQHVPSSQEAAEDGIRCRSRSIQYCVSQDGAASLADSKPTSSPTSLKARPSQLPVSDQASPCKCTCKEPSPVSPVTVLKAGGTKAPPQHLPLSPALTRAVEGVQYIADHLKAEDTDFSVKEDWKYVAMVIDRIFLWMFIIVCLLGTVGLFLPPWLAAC
T2 sequence (P12390 25-500): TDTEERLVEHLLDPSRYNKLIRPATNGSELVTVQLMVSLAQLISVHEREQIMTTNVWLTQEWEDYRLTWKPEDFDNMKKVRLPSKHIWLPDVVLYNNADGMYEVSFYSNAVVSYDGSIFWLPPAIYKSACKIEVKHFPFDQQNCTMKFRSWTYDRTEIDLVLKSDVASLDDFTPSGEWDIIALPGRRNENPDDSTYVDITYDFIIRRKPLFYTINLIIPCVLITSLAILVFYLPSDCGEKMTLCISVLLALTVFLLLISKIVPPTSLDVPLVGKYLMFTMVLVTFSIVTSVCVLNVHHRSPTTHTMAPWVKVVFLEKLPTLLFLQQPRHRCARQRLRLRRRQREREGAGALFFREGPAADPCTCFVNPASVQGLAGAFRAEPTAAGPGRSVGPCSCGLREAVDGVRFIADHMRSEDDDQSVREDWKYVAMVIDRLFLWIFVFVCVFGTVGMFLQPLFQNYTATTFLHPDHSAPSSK
The assay is described as follows: Inhibition of [^3H]nicotine binding to brain membranes. The following applies: 3 nM [^3H]NIC; for inhibition at 0.1 µM: % inhibition at 100 nM analog, nonspecific 10 μM nicotine; for Ki: full concentration effect. As for the experimental part:
as §1
Homogenate was centrifuged (25,000 g, 15 min, 4° C.). Pellets were resuspended in 20 volumes of buffer and incubated at 37° C., for 10 min, cooled to 4° C. and centrifuged (25,000 g, 15 min, 4° C.). Pellets were resuspended and centrifuged using the same conditions. […] Upon use, final pellets were resuspended in ˜20 volumes of assay buffer. Samples (250 μl) contained 100-140 μg of membrane protein, 3 nM [^3H]nicotine or 3 nM [^3H]methyllycaconitine (MLA), and test compounds of Formula (I) (100 nM) in assay buffer containing 50 mM Tris. A control sample absent test compounds of Formula (I) was also prepared. In the [^3H]nicotine-binding assay and [^3H]MLA-binding assay, nonspecific-binding was determined in the presence of 10 μM nicotine and 10 μM MLA, respectively. Incubations proceeded for 60 min at a room temperature using 96-well plates, and were terminated by harvesting on Unifilter-96 GF/B filter plates presoaked in 0.5% polyethylenimine, using a Packard FilterMate harvester. After washing 5 times with 350 μl ice-cold assay buffer, the filter plates were dried (60 min, 4° C.), bottom-sealed, and filled with Packard's MicroScint 20 cocktail (40 μl/well). After 60 min, filter plates were top-sealed, and levels of radioactivity were determined using a Packard TopCount. Protein concentrations were determined using the Bradford dye-binding procedure using bovine serum albumin as a standard protein.
Specific binding in the [^3H]NIC binding assay is calculated as the difference between the total binding of 3 nM [^3H]NIC and nonspecific binding in the presence of 10 μM cold nicotine. […] Analog-induced inhibition of nicotine-evoked [^3H]DA release is calculated as a percent of that in the absence of the mono quaternary ammonium analog. ND indicates not determined.

By inhibition is commonly meant the percentage by which the read-out fell short of the control. Lower therefore signals little suppression. Compound `c1ccc(-c2ccc(CCCCC[n+]3cccc4ccccc43)cc2)cc1` registered an inhibition at 0.1 µM in assay [1] of 61%.
The same measure, in the same setting: next, `c1ccc(-c2ccc(CCCCC[n+]3ccccc3)cc2)cc1`: 30%.
Same read-out and setting: then `Cc1cc[n+](CCCCCc2ccc(-c3ccccc3)cc2)cc1C`, with 38%.
As to `Cc1cc[n+](CCCCCCCCCCCCCc2cccnc2)cc1C`, the inhibition at 0.1 µM was 0% in assay [2], 20% in assay [1] and 3% in assay [3].
Consider `CCCCc1ccc(C#CCC[n+]2ccc(C)c(C)c2)cc1`, for which the inhibition at 0.1 µM in assay [2] stood at 10%; in assay [3], 0%.
As to `CCCCc1ccc(CCCC[n+]2ccc(C)cc2C)cc1`, the inhibition at 0.1 µM in assay [2] amounted to 0%; in assay [1] it was 19%; in assay [3], 6%.
On the same counts, the results for `CN1CCC[C@H]1c1ccc[n+](CCCC#Cc2ccc(-c3ccccc3)cc2)c1` are 6%, 47% and 20%.
On the same counts, the results for `Cc1cccc[n+]1CCCCCCCCc1ccccc1` are 0%, 62% and 0%.
In turn, `CN1CCC[C@H]1c1ccc[n+](CCCCCc2ccc(-c3ccccc3)cc2)c1` returned an inhibition at 0.1 µM in assay [1] of 51%.
A word on the Ki: it is a measure of affinity in units of concentration, obtained from inhibition or displacement. A low value points to tighter binding. For `Cc1cc[n+](CCCCCCCCc2ccccc2)cc1`, the Ki in assay [2] was 27 µM; in assay [3] it was over 100 µM. Besides, in assay [1], the inhibition at 0.1 µM worked out at 12%.
Take `C(#Cc1ccc(-c2ccccc2)cc1)CCC[n+]1cccc(-c2ccccc2)c1`: the values for the inhibition at 0.1 µM in assay [2] and in assay [3] were 6% and 8%, respectively.
`Cc1cc(C)c[n+](CCCC#Cc2ccc(-c3ccccc3)cc2)c1`: the figures for the inhibition at 0.1 µM in assay [2], in assay [1] and in assay [3] were 3%, 51% and 8%, respectively.
As to `Cc1cc[n+](CCCC#Cc2ccc(-c3ccccc3)cc2)c(C)c1`, the inhibition at 0.1 µM was 6% in assay [2], 5% in assay [1] and 2% in assay [3].
In the case of `Cc1cc(C)c[n+](CCCCCc2ccc(-c3ccccc3)cc2)c1`, in assay [1], the inhibition at 0.1 µM was found to be 51%.
Turning to `Cc1ccc[n+](CCCC#Cc2ccc(-c3ccccc3)cc2)c1`, the inhibition at 0.1 µM in assay [2] stood at 2%; in assay [1], 41%; in assay [3], 0%.
With `CCCCc1ccc(C#CCC[n+]2cc(C)cc(C)c2)cc1`, the inhibition at 0.1 µM in assay [2] and in assay [3] was 0% each time.
As to `CCCCc1ccc(C#CCC[n+]2ccc3c(c2)CCCC3)cc1`, the Ki in assay [2] is 3.7 µM; in assay [3], over 100 µM. This compound also came in with an inhibition at 0.1 µM in assay [1] of 70%.
On to `C(#Cc1ccc(-c2ccccc2)cc1)CCC[n+]1cccc2ccccc21`, for which the inhibition at 0.1 µM is 7% in assay [2], 23% in assay [1] and 1% in assay [3].
For `c1cncc(CCCCCCCCCCCCC[n+]2ccc3c(c2)CCCC3)c1`, the Ki in assay [2] is 7.2 µM; in assay [3] it was over 100 µM. The same compound yielded an inhibition at 0.1 µM in assay [1] of 0%.
As for `C(#Cc1ccc(-c2ccccc2)cc1)CCC[n+]1ccc2ccccc2c1`, the inhibition at 0.1 µM in assay [2] was found to be 6%; in assay [3] it was 0%.
In the same order, the values of `CCCCc1ccc(C#CCC[n+]2cccc(CCCO)c2)cc1` are 0% and 0%.
Take `C(#Cc1ccc(-c2ccccc2)cc1)CCC[n+]1ccccc1`: the inhibition at 0.1 µM in assay [2] was found to be 6%; in assay [1], 34%; in assay [3] it was 2%.
For `CCCCc1ccc(CCCC[n+]2ccccc2C)cc1`, the inhibition at 0.1 µM in assay [2] and in assay [3] was 0% in each case.
As to `CCCCc1ccc[n+](CCCC#Cc2ccc(-c3ccccc3)cc2)c1`, the inhibition at 0.1 µM in assay [2] turned out to be 9%; in assay [1], 50%; in assay [3], 0%.
On to `CCCCc1ccc(CCCC[n+]2ccc(C)c(C)c2)cc1`, for which the inhibition at 0.1 µM in assay [2] and in assay [3] was 0% throughout.
Consider `CCCCc1ccc(C#CCC[n+]2cccc(C)c2)cc1`, for which the inhibition at 0.1 µM in assay [2] amounted to 0%; in assay [1], 11%; in assay [3] it was 0%.
For `Cc1cc[n+](CCCCCc2ccc(-c3ccccc3)cc2)cc1`, the inhibition at 0.1 µM in assay [1] is 18%.
Take `c1ccc(-c2ccc(CCCCC[n+]3ccc4ccccc4c3)cc2)cc1`: the inhibition at 0.1 µM was found to be 6% in assay [2] and 0% in assay [3].
In turn, `Cc1cccc[n+]1CCCCCc1ccc(-c2ccccc2)cc1` gave an inhibition at 0.1 µM in assay [1] of 45%.
On the same count and under the same terms, next, `Cc1cc[n+](CCCCCc2ccc(-c3ccccc3)cc2)c(C)c1`: 39%.
As for `CCCCc1ccc(CCCC[n+]2cc(C)cc(C)c2)cc1`, the inhibition at 0.1 µM in assay [2] and in assay [3] was 0% in each case.
Turning to `CCCCc1ccc(C#CCC[n+]2cccc(CC)c2)cc1`, the inhibition at 0.1 µM in assay [2] and in assay [3] was 0% throughout.
`CCCCc1ccc(CCCC[n+]2ccc3c(c2)CCCC3)cc1`: the Ki was 14 µM in assay [2] and over 100 µM in assay [3].
`CCCCc1ccc[n+](CCCCCc2ccc(-c3ccccc3)cc2)c1` had an inhibition at 0.1 µM in assay [1] of 43%.
